The numbers were not newly measured in patent publication US20080293724A1, “Methods Using Hydralazine Compounds and Isosorbide Dinitrate or Isosorbide Mononitrate” (NITROMED, INC., priority 2006, published 2008), which cites them from elsewhere.

Where a name gives a salt, the structure may show the parent alone.

As for `NNc1nncc2ccccc12` [Hydralazine hydrochloride, hydralazine hydrochloride], the solubility in water result is “soluble”. Moreover, the solubility in alcohol entry (alcohol) is recorded as “slightly soluble”. Further, the solubility in ether result (ether) was “very slightly soluble”.

For the compound `O=[N+]([O-])O[C@H]1CO[C@H]2[C@@H]1OC[C@H]2O[N+](=O)[O-]` [isosorbide dinitrate, 1,4,3,6-dianhydro-D-glucitol-2,5-dinitrate], the solubility in water result was “sparingly soluble”. For the same compound, the “solubility in organic solvents” value (organic solvents such as ethanol, ether and chloroform) is “freely soluble”.
